Legend:
[1] = Metabolism stability test, pooled human hepatic microsomes (Test Example 11); format: in vitro ADME; details: human liver microsomes, 30 minutes, compound concentration 0.5 μmol/L
Description: Using commercially available pooled human hepatic microsomes, a test compound is reacted for a constant time, a remaining rate is calculated by comparing a reacted sample and an unreacted sample, thereby, a degree of metabolism in liver is assessed.
A reaction was performed (oxidative reaction) at 37° C. for 0 minute or 30 minutes in the presence of 1 mmol/L NADPH in 0.2 mL of a buffer (50 mmol/L tris-HCl pH 7.4, 150 mmol/L potassium chloride, 10 mmol/L magnesium chloride) containing 0.5 mg protein/mL of human liver microsomes. After the reaction, 50 μL of the reaction solution was added to 100 μL of a methanol/acetonitrile=1/1 (v/v), mixed and centrifuged at 3000 rpm for 15 minutes. The test compound in the supernatant was quantified by LC/MS/MS, and a remaining amount of the test compound after the reaction was calculated, letting a compound amount at 0 minute reaction time to be 100%.
The remaining rate at the compound concentration 0.5 μmol/L are shown below.

[2] = molecular target: human ether-a-go-go related gene (hERG) channel (Homo sapiens (Human), UniProt Q12809); assay: hERG test, whole cell patch clamp in CHO cells (Test Example 13); format: cell-based; details: CHO cells expressing hERG channel, tail peak current, 10 minutes
Sequence of human ether-a-go-go related gene (hERG) channel (Q12809 whole entry): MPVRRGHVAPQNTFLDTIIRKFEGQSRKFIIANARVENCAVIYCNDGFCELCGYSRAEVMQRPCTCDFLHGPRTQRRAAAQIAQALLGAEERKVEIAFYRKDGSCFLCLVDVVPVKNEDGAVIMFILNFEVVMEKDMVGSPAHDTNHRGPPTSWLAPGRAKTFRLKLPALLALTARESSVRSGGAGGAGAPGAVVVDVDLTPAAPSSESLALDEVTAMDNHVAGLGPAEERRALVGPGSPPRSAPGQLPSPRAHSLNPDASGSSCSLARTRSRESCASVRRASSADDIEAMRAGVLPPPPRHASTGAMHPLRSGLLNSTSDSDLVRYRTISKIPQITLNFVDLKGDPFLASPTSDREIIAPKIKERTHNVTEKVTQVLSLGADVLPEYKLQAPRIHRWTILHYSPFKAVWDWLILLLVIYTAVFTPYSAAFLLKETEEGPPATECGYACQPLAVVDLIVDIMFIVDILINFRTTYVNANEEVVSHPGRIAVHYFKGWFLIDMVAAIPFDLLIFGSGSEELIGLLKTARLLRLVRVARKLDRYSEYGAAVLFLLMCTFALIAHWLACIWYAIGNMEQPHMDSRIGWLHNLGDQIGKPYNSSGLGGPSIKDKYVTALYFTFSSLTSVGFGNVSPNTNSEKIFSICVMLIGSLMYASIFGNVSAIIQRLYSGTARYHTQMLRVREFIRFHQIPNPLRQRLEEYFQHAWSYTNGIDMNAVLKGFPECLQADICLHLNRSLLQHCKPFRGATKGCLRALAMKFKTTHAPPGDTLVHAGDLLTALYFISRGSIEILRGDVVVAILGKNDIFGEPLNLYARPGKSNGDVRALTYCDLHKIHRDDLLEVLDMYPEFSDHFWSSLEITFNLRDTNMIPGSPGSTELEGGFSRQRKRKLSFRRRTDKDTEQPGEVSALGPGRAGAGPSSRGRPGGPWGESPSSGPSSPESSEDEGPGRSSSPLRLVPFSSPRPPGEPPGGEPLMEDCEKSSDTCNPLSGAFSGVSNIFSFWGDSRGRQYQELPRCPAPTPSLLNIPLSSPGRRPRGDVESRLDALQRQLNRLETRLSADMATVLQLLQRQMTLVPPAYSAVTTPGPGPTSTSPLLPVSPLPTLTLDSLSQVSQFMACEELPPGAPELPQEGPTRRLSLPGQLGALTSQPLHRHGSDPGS
Excerpt: For the purpose of assessing risk of an electrocardiogram QT interval prolongation of the compound of the present invention, effects of the compound of the present invention on delayed rectifier K+ current (IKr), which plays an important role in the ventricular repolarization process, was studied using CHO cells expressing human ether-a-go-go related gene (hERG) channel.
After a cell was retained at a membrane potential of −80 mV by whole cell patch clamp method using an automated patch clamp system (QPatch; Sophion Bioscience A/S) and gave a leak potential of −50 mV, IKr induced by depolarization pulse stimulation at +20 mV for 2 seconds and, further, repolarization pulse stimulation at −50 mV for 2 seconds, was recorded. […] From the recording IKr, an absolute value of the tail peak current was measured based on the current value at the resting membrane potential using analysis software (Falster Patch; Sophion Bioscience A/S). Further, the % inhibition relative to the tail peak current before application of the compound of the present invention was calculated, and compared with the vehicle-applied group (0.1% dimethyl sulfoxide solution) to assess influence of the compound of the present invention on IKr.

[3] = molecular target: human P2X3 receptor (Homo sapiens (Human), UniProt P56373); assay: Evaluation of human P2X3 receptor inhibitory activity (Test Example 1); format: cell-based; details: C6BU-1 cell transfected with human P2X3 receptor gene, FLIPR 384
Sequence of human P2X3 receptor (P56373 whole entry): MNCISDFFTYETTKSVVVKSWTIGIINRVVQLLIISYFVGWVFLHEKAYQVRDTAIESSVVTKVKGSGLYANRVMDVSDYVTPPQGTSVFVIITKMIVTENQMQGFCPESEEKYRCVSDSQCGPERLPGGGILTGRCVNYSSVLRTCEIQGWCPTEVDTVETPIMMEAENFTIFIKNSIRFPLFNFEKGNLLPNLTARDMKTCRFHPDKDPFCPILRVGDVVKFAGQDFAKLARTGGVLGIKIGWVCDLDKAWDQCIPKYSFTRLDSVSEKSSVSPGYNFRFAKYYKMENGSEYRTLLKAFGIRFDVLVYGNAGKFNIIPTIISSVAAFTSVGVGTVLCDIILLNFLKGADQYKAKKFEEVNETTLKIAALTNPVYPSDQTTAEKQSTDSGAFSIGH
Summary of the method: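 C6BU-1 cells stably expressing human P2X3, loaded with 4 μM Fluo-3-AM 1 h at 37 °C, preincubated 5 min with test compound, then stimulated with 150 nM ATP solution (stock, pre-dispense) and monitored by FLIPR for 4 min. IC50 derived from maximum fluorescence ratio (post-ATP peak over baseline).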

[4] = molecular target: rat P2X3 receptor (Rattus norvegicus (Rat), UniProt P49654); assay: Evaluation of rat P2X3 receptor inhibitory activity (Test Example 3); format: cell-based; details: rat P2X3 receptor gene expressed in C6BU-1 cell; read-out: ratP2X3 IC50
Sequence of rat P2X3 receptor (P49654 whole entry): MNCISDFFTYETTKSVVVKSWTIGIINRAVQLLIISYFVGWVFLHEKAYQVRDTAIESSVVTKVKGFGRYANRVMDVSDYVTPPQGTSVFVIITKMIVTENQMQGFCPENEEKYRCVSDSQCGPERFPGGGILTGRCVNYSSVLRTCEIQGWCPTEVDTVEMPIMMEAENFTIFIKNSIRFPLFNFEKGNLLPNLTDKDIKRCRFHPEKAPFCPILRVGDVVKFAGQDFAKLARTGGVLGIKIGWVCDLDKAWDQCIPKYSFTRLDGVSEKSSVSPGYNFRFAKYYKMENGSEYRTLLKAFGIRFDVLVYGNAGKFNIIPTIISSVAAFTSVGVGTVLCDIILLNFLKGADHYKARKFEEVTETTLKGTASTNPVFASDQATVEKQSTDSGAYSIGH
Description: Rat P2X3 receptor gene (GenBank accession number NM_031075) was expressed in C6BU-1 cell. The C6BU-1 cells were seeded in a 96-well microtiter plate at a concentration of 2500 cells/well and cultured in the medium (7.0% fetal bovine serum, 7.0% horse serum, and 1% antibiotic and antifungal in DMEM) for one day at 37° C. under 5% carbon dioxide atmosphere. The plasmid was transfected into the cells using transfection reagent FuGENE6 (Promega). The transfected cells were cultured in the medium for one day at 37° C. under 5% carbon dioxide atmosphere. […] Measurement of fluorescence intensity by FDSS 3000 was started, and 40 μL of DMSO solutions containing different concentrations of the test compound as prepared by dilution with dilution buffer (20 mM HEPES, 137 mM NaCl, 5.27 mM KCl, 0.9 mM MgCl2, 1.26 mM CaCl2, 5.6 mM D-glucose, 2.5 mM probenecid, 0.1% Pluronic F-127, pH7.5) were dispensed to each well through the built-in automatic dispenser. Five minutes after, 50 nM ATP solution (50 μL) prepared by dilution with the dilution buffer was dispensed through the built-in automatic dispenser, and the measurement of fluorescence intensity was continued for 4 min. For each well, the specific maximum fluorescence intensity was calculated as the ratio of the maximum fluorescence intensity after addition of the ATP solution to the fluorescence intensity at the starting of the measurement. […]

[5] = system: partial sciatic nerve ligation model in rats; assay: Analgesic effect in a Seltzer model, Evaluation (1): mechanical allodynia, von Frey filaments (Test Example 6); format: in vivo; details: rat Seltzer model, reversal of mechanical allodynia (von Frey), single oral administration of 1 mg/kg, at 3 hours
Excerpt: Rats were anaesthetized using isoflurane/O2 inhalation anaesthesia. After induction of anesthesia, the left thigh was shaved. An incision was made in the skin just below the hip bone. The muscle was bluntly dissected to expose the sciatic nerve. One third (⅓) to one half (½) of the sciatic nerve thickness was tightly ligated and the wound was closed. The right thigh is used as a sham-operated control. The right thigh undergoes an identical procedure with the left hind limb, however, the sciatic nerve is not manipulated or ligated.
Two weeks after nerve ligation, the effect on mechanical allodynia was assessed using a series of von Frey filaments. For habituation, the rats were placed into a plastic cage on a wire mesh bottom. The mechanical sensitivity (mechanical threshold) of the hind paws was estimated with a series of von Frey filaments (0.4-26 g). The measurement of mechanical sensitivity of the right and left hind paws was performed to obtain predose mechanical sensitivity. […] On the day before the experiment, the rats were evaluated with a series of von Frey filaments to familiarize them with the test procedure. […] Post-dose mechanical sensitivities of the right and left hind paws were measured at approximately 1 to 5 hours after drug administration. Percent reversal of mechanical allodynia for each rat was calculated using the following formula. […]

[6] = Pharmacokinetic test: bioavailability and total body clearance (Test Example 15); format: in vivo; details: SD rats, from AUCs of oral and intravenous groups
Description: • (1) Animals: SD rats were used • (2) Breeding conditions: SD rats were allowed to freely take solid food and sterilized tap water. • (3) Dose and grouping: orally or intravenously administered at a predetermined dose; grouping was as follows (Dose depends on the compound)
Oral administration: 1 mg/kg (n=2)
The total body clearance (CLtot) was calculated by dividing the dose by the AUC of the intravenous administration group.

Row | SMILES | Metabolism Stability (remaining rate) [1] [%] | hERG Inhibition [2] [%] | IC50 [3] [nM] | IC50 [4] [nM] | % reversal [5] [%] | BA [6] [%]
1 | C[C@@H](C(=O)O)[C@H](C)n1c(=O)[nH]/c(=N\c2ccc(Oc3ccc(F)cn3)c(F)c2)n(Cc2ccc(Cl)cc2)c1=O [Compound I-002] | 99 | 7.3 | 5 | 6 |  | 
2 | CC(C)(Cn1c(=O)[nH]/c(=N\c2ccc(Oc3ccc(Cl)cn3)cc2)n(Cc2ccc(Cl)cc2)c1=O)C(=O)O [Compound I-006] |  | 5.3 | 5 |  |  | 
3 | O=c1[nH]/c(=N\c2ccc(Oc3ccc(F)cn3)cc2)n(Cc2ccc(Cl)cc2)c(=O)n1[C@H]1C[C@H](C(=O)O)C1 [Compound I-019] | 96 |  | 7 |  | 27.9 | 
4 | Cc1ccc(Cn2c(=O)n(C[C@H](C)C(=O)O)c(=O)[nH]/c2=N\c2ccc(Oc3cccc(F)n3)cc2)cc1 [Compound I-057] | 91 |  | 5 |  | 21.4 | 66.4
